pIC50: −log10 of the molar value.
Columns and labels:
CDK9/CycT1 = biological target: T1, CDK9/CycT1 (Homo sapiens, UniProt P50750); experiment: CDK9/CycT1 high ATP kinase assay (Method 1b); assay type: biochemical; settings: 2 mM ATP
T1 construct: Recombinant full-length His-tagged human CDK9 and CycT1; His; purchased Invitrogen PV4131; host or cells: insect cells
Experimental: 1b. CDK9/CycT1 High ATP Kinase Assay
CDK9/CycT1-inhibitory activity of compounds of the present invention at a high ATP concentration after preincubation of enzyme and test compounds was quantified employing the CDK9/CycT1 TR-FRET assay as described in the following paragraphs.
Recombinant full-length His-tagged human CDK9 and CycT1, expressed in insect cells and purified by Ni-NTA affinity chromatography, were purchase from Invitrogen (Cat. No PV4131). As substrate for the kinase reaction biotinylated peptide biotin-Ttds-YISPLKSPYKISEG (C-terminus in amid form) was used which can be purchased e.g. form the company JERINI peptide technologies (Berlin, Germany). For the assay 50 n1 of a 100 fold concentrated solution of the test compound in DMSO was pipetted into a black low volume 384 well microtiter plate (Greiner Bio-One, Frickenhausen, Germany), 2 μl of a solution of CDK9/CycT1 in aqueous assay buffer [50 mM Tris/HCl pH 8.0, 10 mM MgCl2, 1.0 mM dithiothreitol, 0.1 mM sodium ortho-vanadate, 0.01% (v/v) Nonidet-P40 (Sigma)] were added and the mixture was incubated for 15 min at 22° C. to allow pre-binding of the test compounds to the enzyme before the start of the kinase reaction. Then the kinase reaction was started by the addition of 3 μl of a solution of adenosine-tri-phosphate (ATP, 3.3 mM=>final conc. in the 5 μl assay volume is 2 mM) and substrate (1.67 μM=>final conc. in the 5 μl assay volume is 1 μM) in assay buffer and the resulting mixture was incubated for a reaction time of […] at 22° C. The concentration of CDK9/CycT1 was adjusted depending of the activity of the enzyme lot and was chosen appropriate to have the assay in the linear range, typical concentrations were in the range of 0.5 μg/mL. The reaction was stopped by the addition of 5 μl of a solution of TR-FRET detection reagents (0.2 μM streptavidine-XL665 [Cisbio Bioassays, Codolet, France] and 1 nM anti-RB(pSer807/pSer811)-antibody from BD Pharmingen [#558389] and 1.2 nM LANCE EU-W1024 labeled anti-mouse IgG antibody [Perkin-Elmer, product no. AD0077]) in an aqueous EDTA-solution (100 mM EDTA, 0.2% (w/v) bovine serum albumin in 100 mM HEPES/NaOH pH 7.0).
The resulting mixture was incubated 1 h at 22° C. to allow the formation of complex between the phosphorylated biotinylated peptide and the detection reagents. Subsequently the amount of phosphorylated substrate was evaluated by measurement of the resonance energy transfer from the Eu-chelate to the streptavidine-XL. Therefore, the fluorescence emissions at 620 nm and 665 nm after excitation at 350 nm was measured in a HTRF reader, e.g. a Rubystar (BMG Labtechnologies, Offenburg, Germany) or a Viewlux (Perkin-Elmer). The ratio of the emissions at 665 nm and at […] was taken as the measure for the amount of phosphorylated substrate. […]

Caco-2 cells = experiment: Proliferation assay, Caco-2; assay type: cell-based; settings: Homo sapiens, Caco-2, 96 h; 4 days, crystal violet; read-out: Inhibition of Caco-2 cell proliferation IC50
Experimental: (§1) Cultivated tumour cells (HeLa, human cervical tumour cells, ATCC CCL-2; NCI-H460, human non-small cell lung carcinoma cells, ATCC HTB-177; A2780, human ovarian carcinoma cells, ECACC #93112519; DU 145, hormone-independent human prostate carcinoma cells, ATCC HTB-81; HeLa-MaTu-ADR, multidrug-resistant human cervical carcinoma cells, EPO-GmbH Berlin; Caco-2, human colorectal carcinoma cells, ATCC HTB-37; B16F10, mouse melanoma cells, ATCC CRL-6475) were plated at a density of 5,000 cells/well (DU145, HeLa-MaTu-ADR), 3,000 cells/well (NCI-H460, HeLa), 2,500 cells/well (A2780), 1,500 cells/well (Caco-2), or 1,000 cells/well (B16F10) in a 96-well multititer plate in 200 μL of their respective growth medium supplemented 10% fetal calf serum. After 24 hours, the cells of one plate (zero-point plate) were stained with crystal violet (see below), while the medium of the other plates was replaced by fresh culture medium (200 μl), to which the test substances were added in various concentrations (0 μM, as well as in the range of 0.001-10 μM; the final concentration of the solvent dimethyl sulfoxide was 0.5%). The cells were incubated for 4 days in the presence of test substances. Cell proliferation was determined by staining the cells with crystal violet: the cells were fixed by adding 20 μl/measuring point of an 11% glutaric aldehyde solution for 15 minutes at room temperature. After three washing cycles of the fixed cells with water, the plates were dried at room temperature. The cells were stained by adding 100 μl/measuring point of a 0.1% crystal violet solution (pH 3.0). After three washing cycles of the stained cells with water, the plates were dried at room temperature. The dye was dissolved by adding 100 μl/measuring point of a 10% acetic acid solution. The extinction was determined by photometry at a wavelength of 595 nm. The change of cell number, in percent, was calculated by normalization of the measured values to the extinction values of the zero-point plate (=0%) and the extinction of the untreated (0 μm) cells (=100%). […]

B16F10 cells = experiment: Proliferation assay, B16F10; assay type: cell-based; settings: Mus musculus, B16-F10, 96 h; 4 days, crystal violet; read-out: Inhibition of B16F10 cell proliferation IC50
Experimental: as §1

DU145 cells = experiment: Proliferation assay, DU145; assay type: cell-based; settings: Homo sapiens, DU-145, 96 h; 4 days, crystal violet; read-out: Inhibition of DU145 cell proliferation IC50
Experimental: as §1

A2780 cells = experiment: Proliferation assay, A2780; assay type: cell-based; settings: Homo sapiens, A2780, 96 h; 4 days, crystal violet; read-out: Inhibition of A2780 cell proliferation IC50
Experimental: Cultivated tumour cells (HeLa, human cervical tumour cells, ATCC CCL-2; NCI-H460, human non-small cell lung carcinoma cells, ATCC HTB-177; A2780, human ovarian carcinoma cells, ECACC #93112519; DU 145, hormone-independent human prostate carcinoma cells, ATCC HTB-81; HeLa-MaTu-ADR, multidrug-resistant human cervical carcinoma cells, EPO-GmbH Berlin; Caco-2, human colorectal carcinoma cells, ATCC HTB-37; B16F10, mouse melanoma cells, ATCC CRL-6475) were plated at a density of 5,000 cells/well (DU145, HeLa-MaTu-ADR), 3,000 cells/well (NCI-H460, HeLa), 2,500 cells/well (A2780), 1,500 cells/well (Caco-2), or 1,000 cells/well (B16F10) in a 96-well multititer plate in 200 μL of their respective growth medium supplemented 10% fetal calf serum. […] Cell proliferation was determined by staining the cells with crystal violet: the cells were fixed by adding 20 μl/measuring point of an 11% glutaric aldehyde solution for 15 minutes at room temperature. […] The extinction was determined by photometry at a wavelength of 595 nm. The change of cell number, in percent, was calculated by normalization of the measured values to the extinction values of the zero-point plate (=0%) and the extinction of the untreated (0 μm) cells (=100%). […]

T1 sequence (P50750 whole entry): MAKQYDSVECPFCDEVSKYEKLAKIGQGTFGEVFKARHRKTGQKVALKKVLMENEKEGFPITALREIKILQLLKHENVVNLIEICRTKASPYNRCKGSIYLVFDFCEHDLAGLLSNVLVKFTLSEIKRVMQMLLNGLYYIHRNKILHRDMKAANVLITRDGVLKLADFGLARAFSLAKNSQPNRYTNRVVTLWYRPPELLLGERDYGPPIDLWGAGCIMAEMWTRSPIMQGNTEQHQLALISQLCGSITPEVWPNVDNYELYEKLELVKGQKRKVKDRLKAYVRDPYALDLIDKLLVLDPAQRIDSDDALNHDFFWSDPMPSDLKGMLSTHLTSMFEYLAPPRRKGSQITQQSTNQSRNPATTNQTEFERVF
T1 sequence (O60563 whole entry partner): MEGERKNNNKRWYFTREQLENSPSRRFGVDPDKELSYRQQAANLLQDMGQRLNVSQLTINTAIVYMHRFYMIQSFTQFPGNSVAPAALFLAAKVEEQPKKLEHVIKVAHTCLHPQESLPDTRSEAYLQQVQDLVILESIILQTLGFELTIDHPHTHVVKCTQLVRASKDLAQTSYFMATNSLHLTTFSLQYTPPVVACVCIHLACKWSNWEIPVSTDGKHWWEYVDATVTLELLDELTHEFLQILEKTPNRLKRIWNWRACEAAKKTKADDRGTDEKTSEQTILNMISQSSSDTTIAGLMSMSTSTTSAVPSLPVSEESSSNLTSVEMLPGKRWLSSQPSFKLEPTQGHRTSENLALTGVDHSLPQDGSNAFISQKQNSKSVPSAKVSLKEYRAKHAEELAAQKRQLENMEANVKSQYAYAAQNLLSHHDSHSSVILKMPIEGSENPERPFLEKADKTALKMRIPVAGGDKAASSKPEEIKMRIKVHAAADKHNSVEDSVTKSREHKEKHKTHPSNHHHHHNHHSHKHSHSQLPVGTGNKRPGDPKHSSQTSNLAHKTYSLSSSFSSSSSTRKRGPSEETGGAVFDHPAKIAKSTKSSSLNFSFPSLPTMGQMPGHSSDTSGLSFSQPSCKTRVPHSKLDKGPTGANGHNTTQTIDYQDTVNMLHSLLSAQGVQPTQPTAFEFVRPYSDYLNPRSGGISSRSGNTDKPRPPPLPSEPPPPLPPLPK

pIC50 (CDK9/CycT1)	pIC50 (Caco-2 cells)	pIC50 (B16F10 cells)	pIC50 (DU145 cells)	pIC50 (A2780 cells)	SMILES
8.70	7.04	7.00	7.12		COc1cc(F)ccc1-c1cc(Nc2cc(CS(C)(=O)=O)cc(C)n2)ncn1 [Example 2, 6-(4-Fluoro-2-methoxyphenyl)-N-{6-methyl-4-[(methylsulfonyl)methyl]pyridin-2-yl}pyrimidin-4-amine]
7.80	6.47	6.54	6.71	7.19	COc1cc(F)ccc1-c1cc(Nc2cc(CS(C)(=O)=O)ccn2)ncn1 [Example 1, 6-(4-Fluoro-2-methoxyphenyl)-N-{4-[(methylsulfonyl)methyl]pyridin-2-yl}pyrimidin-4-amine]
8.70	7.28	7.47	7.47	7.85	COc1cc(F)ccc1-c1cc(Nc2cc(CS(C)(=O)=O)cc(C(F)(F)F)n2)ncn1 [Example 3, 6-(4-Fluoro-2-methoxyphenyl)-N-{4-[(methylsulfonyl)methyl]-6-(trifluoromethyl)pyridin-2-yl}pyrimidin-4-amine]
7.96					COc1cc(F)ccc1-c1cc(Nc2cc(CS(C)(=O)=O)cc(F)n2)ncn1 [Example 4, 6-(4-Fluoro-2-methoxyphenyl)-N-{6-fluoro-4-[(methylsulfonyl)methyl]pyridin-2-yl}pyrimidin-4-amine]

From patent US9708293B2, “N-(pyridin-2-yl)pyrimidin-4-amine derivatives containing a sulfone group” (BAYER PHARMA AKTIENGESELLSCHAFT, priority 2012, dated 2017)
